{"source": "patent US20260356957A1", "about": "“METHODS FOR TREATMENT OF NON-SMALL CELL LUNG CANCER (NSCLC)” (Janssen Biotech, Inc., priority 2023, published 2026)", "tested_on": "EGFR-mutated locally advanced or metastatic NSCLC", "assay": "MARIPOSA Phase 3, progression-free survival after first subsequent therapy (PFS2)", "format": "in vivo, human", "excerpt": "The efficacy population included all patients who had undergone randomization. Tick marks indicate censoring of data. […]", "data": [{"smiles": "C=CC(=O)Nc1cc(Nc2nccc(-c3cn(C)c4ccccc34)n2)c(OC)cc1N(C)CCN(C)C", "note": "[Osimertinib]", "values": [{"measurement": "Censored (PFS2)", "setting": "Full Analysis Set", "value": "299 (60.7%) (%)"}, {"measurement": "Event (PFS2)", "setting": "Full Analysis Set", "value": "130 (30.3%) (%)"}, {"measurement": "PFS2 6-month event-free rate (95% CI)", "setting": "Full Analysis Set", "value": "0.95 (0.93, 0.97)"}, {"measurement": "PFS2 18-month event-free rate (95% CI)", "setting": "Full Analysis Set", "value": "0.76 (0.71, 0.80)"}, {"measurement": "PFS2 30-month event-free rate (95% CI)", "setting": "Full Analysis Set", "value": "0.56 (0.46, 0.66)"}, {"measurement": "PFS2 Median (95% CI)", "setting": "Full Analysis Set", "value": "NE (29.31, NE)"}, {"measurement": "PFS2 time to event, 25th percentile (95% CI)", "setting": "Full Analysis Set", "value": "18.40 (15.93, 20.50) months"}, {"measurement": "PFS2 time to event, 75th percentile (95% CI)", "setting": "NE = not estimable", "value": "NE (NE, NE)"}]}]}
